BigSolDB 2.1

CC1=CC(=O)C(C(C)C)=CC1=O
solubility (mole fraction)
Settings | in DMSO | in ethanol | in ethyl acetate | in isopropanol | in methanol | in n-butanol | in propylene glycol | in sec-butanol | in transcutol | in water
298.2 K | 0.0278 | 0.0179 | 0.0312 | 0.0451 | 0.01 | 0.0594 | 0.00553 | 0.0614 | 0.0664 | 8.27e-05
303.2 K | 0.0309 | 0.0206 | 0.0347 | 0.0514 | 0.0116 | 0.0658 | 0.0069 | 0.07 | 0.0755 | 9.39e-05
308.2 K | 0.0358 | 0.0238 | 0.0387 | 0.0579 | 0.0137 | 0.0744 | 0.00891 | 0.0774 | 0.0838 | 0.000108
313.2 K | 0.0402 | 0.0278 | 0.0431 | 0.0663 | 0.0157 | 0.082 | 0.0116 | 0.0865 | 0.0927 | 0.000131
318.2 K | 0.045 | 0.0326 | 0.0485 | 0.0758 | 0.0182 | 0.0933 | 0.0146 | 0.0973 | 0.103 | 0.000152

Settings | solubility (mole fraction)
in PEG-400, 298.2 K | 0.0352
in PEG-400, 303.2 K | 0.042
in PEG-400, 308.2 K | 0.0508
in PEG-400, 313.2 K | 0.0617
in PEG-400, 318.2 K | 0.0744
